According to PMC6713628 (Investigational new drugs, 2019):
Like-named read-outs stand apart in the source and are kept apart here.

What was measured:
white blood cells = experiment: Emax model of percent decrease of WBC from baseline to nadir versus exposure; type: in vivo, cancer patients with solid tumors (humans)
[1] = for IIV of clearance: univariate analysis
[2] = lactone form; ref 32 (Leggas et al., 2009); cited from earlier work
UGT1A1 = conditions: primarily hepatic UGT1A1; cited from earlier work
[3] = more lipophilic than camptothecin; cited from earlier work
platelets = type: in vivo, cancer patients with solid tumors (humans); conditions: sigmoid Emax model

Structure (SMILES): CC[C@@]1(O)C(=O)OCc2c1cc1n(c2=O)Cc2c-1nc1ccc(O)cc1c2[Si](C)(C)C(C)(C)C [AR-67, 7-t-butyldimethylsilyl-10-hydroxycamptothecin]
- AUC ED50, percent decrease of WBC (white blood cells; AUC0-∞ as independent variable, hyperbolic Emax model, 22 patients, Cycle 1): 397.6 ng·h/mL
- Cmax ED50, percent decrease of WBC (white blood cells; Cmax as independent variable, sigmoid Emax model): 0.3268 µg/mL
- AGE on V1 (covariate effect exponent), estimate ([1]; V1=V1TV×(AGE/62)^θ, original dataset): 3.36
- Interindividual variability in V1 ([1]; before incorporation of age into the model): 118%
- AGE on V1, bootstrap median ([1]; bootstrap n=1000 datasets): 3.48
- CL, bootstrap median ([1]; bootstrap n=1000 datasets): 31.9 L/h
- Q, bootstrap median ([1]; bootstrap n=1000 datasets): 29.0 L/h
- V1, bootstrap median ([1]; bootstrap n=1000 datasets): 6.65 L
- V2, bootstrap median ([1]; bootstrap n=1000 datasets): 25.8 L
- ω2 V1, bootstrap median ([1]; bootstrap n=1000 datasets): 0.856
- Interindividual variability (CV%) of population CL ([1]; final model): 29.1%
- V2 (peripheral volume), population estimate ([1]; final model, original dataset): 25.0 L
- ω2 CL (interindividual variability), estimate ([1]; final model, original dataset): 0.0849
- ω2 V1 (interindividual variability), estimate ([1]; final model, original dataset): 0.957
- V1 (central volume), population estimate ([1]; final model, original dataset, typical value for subjects aged 62 years): 6.83 L
- Interindividual variability (CV%) of population V1 ([1]; final model, with age as covariate): 97.8%
- IIV of clearance ([1]; BSA included as covariate on CL): 25.5%
- IIV of clearance ([1]; before inclusion of BSA): 29.2%
- overall protein binding, lactone [2]: 95.4%
- in vitro interaction with UGT1A1 (UGT1A1): weak
- lipophilicity relative to camptothecin [3]: about 25 times
- AUC ED50, percent decrease of platelets (platelets; AUC0-∞ as independent variable, 22 patients, Cycle 1): 276.8 ng·h/mL
- Cmax ED50, percent decrease of platelets (platelets; Cmax as independent variable): 0.2811 µg/mL
